From ChEMBL document CHEMBL2057063, “Exogenous fluorescent tracer agents based on pegylated pyrazine dyes for real-time point-of-care measurement of glomerular filtration rate” (Bioorg Med Chem, 2012)

Tests used:
[1] = Drug excretion in Sprague-Dawley rat urine administered via tail vein measured after 6 hrs by HPLC analysis; type: ADME; details: iv, read-out: Ae
[2] = Plasma protein binding in rat at 20 uM after 1 hr by HPLC analysis; type: ADME, cell-free; details: read-out: PPB (converted)
[3] = Terminal elimination half life in Sprague-Dawley rat plasma; type: ADME, cell-free; details: read-out: beta t1/2
Rattus norvegicus = species: Rattus norvegicus; assay: Volume of distribution in Sprague-Dawley rat; type: ADME, organism-based; details: in vivo
[4] = Clearance in Sprague-Dawley rat; type: ADME, organism-based; details: in vivo
[5] = Clearance in Sprague-Dawley rat in presence of 70 mg/kg probenecid administered 10 mins prior to compound treatment; type: ADME, organism-based; design: dose 70 mg/kg; details: in vivo, with probenecid 70 mg/kg
[6] = Terminal elimination half life in Sprague-Dawley rat blood; type: ADME, tissue-based; details: read-out: beta t1/2

Row | SMILES | fraction unbound at 1 h, 20 µM [2] | half-life [3] | Vd (Rattus norvegicus) | clearance [4] | clearance [5] | half-life [6] | dose excreted at 6 h [1]
1 | O=C(NCC(O)CO)c1nc(NC[C@H](O)CO)c(C(=O)NCC(O)CO)nc1NC[C@H](O)CO (some centres undefined) |  |  |  |  |  |  | 88%
2 | COCCOCCOCCOCCOCCOCCOCCOCCNC(=O)c1nc(N)c(C(=O)NCCOCCOCCOCCOCCOCCOCCOCCOC)nc1N | 1 |  |  |  |  |  | 45%
3 | CCCNc1nc(C(=O)NCCOCCOCCOCCOCCOCCOCCOCCOCCOCCOCCOCCOCCOCCOCCOCCOCCOCCOCCOCCOCCOCCOCCOCCOC)c(NCCC)nc1C(=O)NCCOCCOCCOCCOCCOCCOCCOCCOCCOCCOCCOCCOCCOCCOCCOCCOCCOCCOCCOCCOCCOCCOCCOCCOC | 0.87 |  |  |  |  |  | 85%
4 | COCCOCCOCCOCCOCCOCCOCCOCCCNc1nc(C(=O)NCCOCCOCCOCCOCCOCCOCCOCCOCCOCCOCCOCCOCCOCCOCCOCCOCCOCCOCCOCCOCCOCCOCCOCCOC)c(NCCCOCCOCCOCCOCCOCCOCCOCCOC)nc1C(=O)NCCOCCOCCOCCOCCOCCOCCOCCOCCOCCOCCOCCOCCOCCOCCOCCOCCOCCOCCOCCOCCOCCOCCOCCOC | 0.7 |  |  |  |  |  | 92%
5 | COCCOCCOCCOCCOCCOCCOCCOCCOCCOCCOCCOCCOCCOCCOCCOCCOCCOCCOCCOCCOCCOCCOCCOCCCNc1nc(C(=O)NCCOCCOCCOCCOCCOCCOCCOCCOCCOCCOCCOCCOCCOCCOCCOCCOCCOCCOCCOCCOCCOCCOCCOCCOC)c(NCCCOCCOCCOCCOCCOCCOCCOCCOCCOCCOCCOCCOCCOCCOCCOCCOCCOCCOCCOCCOCCOCCOCCOCCOC)nc1C(=O)NCCOCCOCCOCCOCCOCCOCCOCCOCCOCCOCCOCCOCCOCCOCCOCCOCCOCCOCCOCCOCCOCCOCCOCCOC | 0.61 |  |  |  |  |  | 86%
6 | CNC(=O)c1c(I)c(NC(C)=O)c(I)c(C(=O)[O-])c1I.[Na+] [IOTHALAMATE SODIUM] |  |  | 104 mL | 2.5 mL/min | 2.2 mL/min |  | 80%

The next lines start with results.

Row | fraction unbound at 1 h, 20 µM [2] | half-life [3] | Vd (Rattus norvegicus) | clearance [4] | clearance [5] | half-life [6] | SMILES | dose excreted at 6 h [1]
7 | 1 |  |  |  |  |  | COCCOCCOCCOCCNC(=O)c1nc(N)c(C(=O)NCCOCCOCCOCCOC)nc1N | 41%
8 | 1 | 20 min | 70 mL |  |  |  | COCCOCCOCCOCCOCCOCCOCCOCCOCCOCCOCCOCCNC(=O)c1nc(N)c(C(=O)NCCOCCOCCOCCOCCOCCOCCOCCOCCOCCOCCOCCOC)nc1N | 71%
9 | 0.95 | 25 min | 64 mL | 2.8 mL/min | 2.7 mL/min |  | COCCOCCOCCOCCOCCOCCOCCOCCOCCOCCOCCOCCOCCOCCOCCOCCOCCOCCOCCOCCOCCOCCOCCOCCNC(=O)c1nc(N)c(C(=O)NCCOCCOCCOCCOCCOCCOCCOCCOCCOCCOCCOCCOCCOCCOCCOCCOCCOCCOCCOCCOCCOCCOCCOCCOC)nc1N | 96%
10 | 1 |  |  |  |  |  | COCCOCCOCCOCCCNc1nc(C(=O)NCCOCCOCCOCCOCCOCCOCCOCCOCCOCCOCCOCCOC)c(NCCCOCCOCCOCCOC)nc1C(=O)NCCOCCOCCOCCOCCOCCOCCOCCOCCOCCOCCOCCOC | 86%
11 | 0.99 |  |  |  |  |  | COCCOCCOCCOCCOCCOCCOCCOCCCNc1nc(C(=O)NCCOCCOCCOCCOCCOCCOCCOCCOCCOCCOCCOCCOC)c(NCCCOCCOCCOCCOCCOCCOCCOCCOC)nc1C(=O)NCCOCCOCCOCCOCCOCCOCCOCCOCCOCCOCCOCCOC | 87%
12 | 0.97 | 19 min | 61 mL | 3.1 mL/min | 3.3 mL/min | 21.6 min | COCCOCCOCCOCCOCCOCCOCCOCCOCCOCCOCCOCCCNc1nc(C(=O)NCCOCCOCCOCCOCCOCCOCCOCCOCCOCCOCCOCCOC)c(NCCCOCCOCCOCCOCCOCCOCCOCCOCCOCCOCCOCCOC)nc1C(=O)NCCOCCOCCOCCOCCOCCOCCOCCOCCOCCOCCOCCOC | 97%
13 | 0.89 |  |  |  |  |  | COCCOCCOCCNc1nc(C(=O)NCCOCCOCCOCCOCCOCCOCCOCCOCCOCCOCCOCCOCCOCCOCCOCCOCCOCCOCCOCCOCCOCCOCCOCCOC)c(NCCOCCOCCOC)nc1C(=O)NCCOCCOCCOCCOCCOCCOCCOCCOCCOCCOCCOCCOCCOCCOCCOCCOCCOCCOCCOCCOCCOCCOCCOCCOC | 96%
14 | 0.59 | 31 min | 68 mL |  |  |  | COCCOCCOCCOCCOCCOCCOCCOCCOCCOCCOCCOCCCNc1nc(C(=O)NCCOCCOCCOCCOCCOCCOCCOCCOCCOCCOCCOCCOCCOCCOCCOCCOCCOCCOCCOCCOCCOCCOCCOCCOC)c(NCCCOCCOCCOCCOCCOCCOCCOCCOCCOCCOCCOCCOC)nc1C(=O)NCCOCCOCCOCCOCCOCCOCCOCCOCCOCCOCCOCCOCCOCCOCCOCCOCCOCCOCCOCCOCCOCCOCCOCCOC | 89%
15 |  |  | 83 mL |  |  |  | Nc1nc(C(=O)N[C@H](CO)C(=O)O)c(N)nc1C(=O)N[C@H](CO)C(=O)O [RELMAPIRAZIN] | 90%
